US6919334B2, “Antidepressant azaheterocyclymethyl derivatives of 4,5-dihydroimidazo[1,4,5-de][1,4]benzoxazine” (Wyeth, priority 2002, dated 2005)

Assays:
[1] = biological target: T1, serotonin transporter (Rattus norvegicus, UniProt P31652); assay: 3H-paroxetine displacement, affinity for the serotonin transporter; type: binding
T1 construct: displace ^3H-paroxetine from male rat frontal cortical membranes; from tissue; host or cells: male rat frontal cortex membranes

[2] = biological target: T2, human 5-HT1A receptors (Homo sapiens, UniProt P08908); assay: [3H] 8-OHDPAT displacement from 5-HT1A receptor (transfected CHO cells); type: binding; settings: percent displacement of [3H] 8-OHDPAT at 1 micromolar; CHO cells with human 5-HT1A
T2 construct: expressed in transfected cells; host or cells: CHO cells, stably transfected
T2 sequence (P08908 1-422): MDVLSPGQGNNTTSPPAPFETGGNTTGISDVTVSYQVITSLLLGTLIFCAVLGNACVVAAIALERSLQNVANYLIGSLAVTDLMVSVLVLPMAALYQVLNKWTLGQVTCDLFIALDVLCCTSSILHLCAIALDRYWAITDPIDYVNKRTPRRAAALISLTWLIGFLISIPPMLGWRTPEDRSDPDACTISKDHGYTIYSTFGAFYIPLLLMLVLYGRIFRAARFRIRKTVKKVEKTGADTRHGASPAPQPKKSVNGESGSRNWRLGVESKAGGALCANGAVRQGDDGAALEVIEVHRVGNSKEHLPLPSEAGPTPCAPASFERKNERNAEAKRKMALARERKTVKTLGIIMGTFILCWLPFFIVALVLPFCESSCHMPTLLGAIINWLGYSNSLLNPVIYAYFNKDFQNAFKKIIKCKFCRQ
From the text: Affinity for the serotonin 5-HT1A receptor was established by testing the claimed compound's ability to displace [^3H] 8-OHDPAT (dipropylaminotetralin) from the 5-HT1A serotonin receptor following a modification of the procedure of Hall et al., J. Neurochem. 44, 1685 (1985), which utilizes CHO cells stably transfected with human 5-HT1A receptors.

[3] = biological target: T3, cloned human 5-HT1A receptors (Homo sapiens, UniProt P08908); assay: 35S-GTPγS binding assay, antagonist activity at 5-HT1A receptors; type: biochemical; settings: reversal of agonist 8-OHDPAT; for IC50: membranes with cloned human 5-HT1A, read-out: 5-HT1A Function IC50; for 5-HT1A Function (Imax), maximum inhibitory effect: value in parentheses
T3 construct: expressed in transfected cells
T3 sequence (P08908 1-422): T2 sequence (P08908 1-422)
Protocol: Antagonist activity at 5-HT1A receptors was established by using a ^35S-GTPγS binding assay similar to that used by Lazareno and Birdsall (Br. J. Pharmacol. 109: 1120, 1993), in which the test compound's ability to affect the binding of ^35S-GTPγS to membranes containing cloned human 5-HT1A receptors was determined. Agonists produce an increase in binding whereas antagonists produce no increase but rather reverse the effects of the standard agonist 8-OHDPAT. The test compound's maximum inhibitory effect is represented as the Imax, while its potency is defined by the IC50.

T1 sequence (P31652 whole entry): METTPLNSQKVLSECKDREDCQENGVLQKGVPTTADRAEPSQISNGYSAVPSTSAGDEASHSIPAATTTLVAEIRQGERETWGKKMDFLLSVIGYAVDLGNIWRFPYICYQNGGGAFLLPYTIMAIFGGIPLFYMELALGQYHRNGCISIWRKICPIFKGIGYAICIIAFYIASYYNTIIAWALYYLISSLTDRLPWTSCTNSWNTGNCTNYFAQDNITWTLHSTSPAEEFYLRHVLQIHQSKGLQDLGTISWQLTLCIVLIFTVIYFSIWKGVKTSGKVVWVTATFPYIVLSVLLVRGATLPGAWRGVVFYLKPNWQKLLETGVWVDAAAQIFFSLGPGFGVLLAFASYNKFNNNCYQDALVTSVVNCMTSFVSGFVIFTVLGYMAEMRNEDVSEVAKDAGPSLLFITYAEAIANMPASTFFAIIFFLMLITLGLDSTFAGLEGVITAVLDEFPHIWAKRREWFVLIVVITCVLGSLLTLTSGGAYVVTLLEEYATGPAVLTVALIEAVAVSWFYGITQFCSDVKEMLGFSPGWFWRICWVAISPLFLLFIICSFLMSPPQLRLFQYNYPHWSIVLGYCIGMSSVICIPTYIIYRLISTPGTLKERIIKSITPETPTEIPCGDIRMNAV

Row | Compound | Ki [1] | 5-HT1A Receptor Affinity % @ 1 μM [2] | IC50 [3] | 5-HT1A Function (Imax), maximum inhibitory effect [3] | melting point
1 | O=c1[nH]c2cccc3c2n1C(CN1CC=C(c2c[nH]c4ccccc24)CC1)CO3 (stereo not drawn) [Example 1, 4-{[4-(1H-indol-3-yl)-3,6-dihydropyridin-1(2H)-yl]methyl}-4,5-dihydroimidazo[1,5,4-de][1,4]benzoxazin-2(1H)-one] | 1.07 nM | 94% | 300 nM | 30 | 147 to 149 °C
2 | O=c1[nH]c2cccc3c2n1C(CN1CC=C(c2c[nH]c4ccc(F)cc24)CC1)CO3 (stereo not drawn) [Example 2] | 2.08 nM | 36% | 300 nM | 30 | 152 to 155 °C
3 | O=c1[nH]c2cccc3c2n1C(CN1CC=C(c2c[nH]c4ccc(Cl)cc24)CC1)CO3 (stereo not drawn) [Example 3, 4-{[4-(5-chloro-1H-indol-3-yl)-3,6-dihydropyridin-1(2H)-yl]methyl}-4,5-dihydroimidazo[1,5,4-de][1,4]benzoxazin-2(1H)-one] | 15 nM | 81% | 300 nM | 30 | 153 to 155 °C
4 | N#Cc1ccc2[nH]cc(C3=CCN(CC4COc5cccc6[nH]c(=O)n4c56)CC3)c2c1 (stereo not drawn) [Example 4, 3-{1-[(2-Oxo-1,2,4,5-tetrahydroimidazo[1,5,4-de][1,4]benzoxazin-4-yl)methyl]-1,2,3,6-tetrahydropyridin-4-yl}-1H-indole-5-carbonitrile] | 3.55 nM | 49% | 750 nM | 100 | > 160 °C
5 | O=c1[nH]c2cccc3c2n1C(CN1CC=C(c2c[nH]c4c(F)cccc24)CC1)CO3 (stereo not drawn) [Example 5, 4-{[4-(7-Fluoro-1H-indol-3-yl)-3,6-dihydropyridin-1(2H)-yl]methyl}-4,5-dihydroimidazo[1,5,4-de][1,4]benzoxazin-2(1H)-one] | 1.23 nM | 48% | 750 nM | 100 | > 120 °C
6 | Cc1nc2cccc3c2n1C(CN1CC=C(c2c[nH]c4ccccc24)CC1)CO3 (stereo not drawn) [Example 6, 4-{[4-(1H-indole-3-yl)-3,6-dihydropyridin-1(2H)-yl]methyl}-2-methyl-4,5-dihydroimidazo[1,5,4-de][1,4]benzoxazine] | 1.86 nM | 39% | 450 nM | 100 | 222 to 225 °C
